Patent publication EP0072352B1, “Benzazepin-2-ones, process for their preparation, pharmaceutical preparations containing these compounds and the compounds for therapeutical use” (CIBA-GEIGY AG, priority 1981, dated 1983)
Structures can show the parent of a compound that is named as a salt. Where two headings read alike, the source gives them in different places.

Legend:
[1] = target: T1, Angiotensin-umwandelnde Enzym (ACE) (Oryctolagus cuniculus, UniProt P12822); test: In vitro ACE inhibition (ACEI), rabbit lung tissue preparation, hippuryl-histidyl-leucine substrate, method of Cheung and Cushman; format: biochemical, Kaninchen
T1 construct: Es wurde ein Kaninchen-Lungengewebe-Präparat; from tissue; host or cells: lung of adult male rabbits
T1 sequence (P12822 34-1310): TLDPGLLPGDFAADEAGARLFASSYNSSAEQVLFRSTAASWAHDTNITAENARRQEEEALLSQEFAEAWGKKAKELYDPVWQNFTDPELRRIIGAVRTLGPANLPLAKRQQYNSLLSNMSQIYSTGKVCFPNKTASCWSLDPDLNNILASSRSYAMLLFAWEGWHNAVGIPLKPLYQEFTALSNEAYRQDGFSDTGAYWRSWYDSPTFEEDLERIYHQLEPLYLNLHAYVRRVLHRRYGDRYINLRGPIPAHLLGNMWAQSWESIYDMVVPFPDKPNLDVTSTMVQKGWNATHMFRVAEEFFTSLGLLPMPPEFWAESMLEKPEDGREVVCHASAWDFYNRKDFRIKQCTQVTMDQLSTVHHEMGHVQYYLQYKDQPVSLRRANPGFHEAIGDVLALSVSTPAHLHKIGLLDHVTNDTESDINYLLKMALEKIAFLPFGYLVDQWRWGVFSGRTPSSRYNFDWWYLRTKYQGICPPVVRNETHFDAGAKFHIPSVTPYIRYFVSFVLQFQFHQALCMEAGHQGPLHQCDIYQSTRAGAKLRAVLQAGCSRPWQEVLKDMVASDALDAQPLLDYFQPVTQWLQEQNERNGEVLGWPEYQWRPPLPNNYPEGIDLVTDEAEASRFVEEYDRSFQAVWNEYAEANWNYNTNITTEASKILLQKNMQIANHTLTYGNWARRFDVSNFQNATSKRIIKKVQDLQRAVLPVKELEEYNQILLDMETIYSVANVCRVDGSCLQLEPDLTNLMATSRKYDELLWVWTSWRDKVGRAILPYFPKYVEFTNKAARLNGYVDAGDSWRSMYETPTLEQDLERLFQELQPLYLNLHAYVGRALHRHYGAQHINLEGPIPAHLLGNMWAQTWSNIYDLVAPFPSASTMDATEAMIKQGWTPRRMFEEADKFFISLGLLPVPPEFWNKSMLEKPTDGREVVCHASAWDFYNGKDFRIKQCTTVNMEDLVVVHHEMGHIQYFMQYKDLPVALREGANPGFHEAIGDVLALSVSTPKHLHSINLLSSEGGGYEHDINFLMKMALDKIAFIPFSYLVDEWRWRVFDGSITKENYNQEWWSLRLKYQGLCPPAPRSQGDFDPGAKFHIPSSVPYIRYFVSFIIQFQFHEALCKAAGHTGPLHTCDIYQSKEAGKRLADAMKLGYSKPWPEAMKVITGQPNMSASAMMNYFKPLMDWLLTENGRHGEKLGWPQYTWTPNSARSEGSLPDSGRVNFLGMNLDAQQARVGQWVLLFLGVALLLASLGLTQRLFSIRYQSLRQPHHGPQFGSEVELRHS
Description: Die in-vitro-Hemmung des Enzyms, welches das Angiotensin umwandelt, kann bei den Verbindungen dieser Erfindung analog zu Biochim. Biophys. Acta 293, 451 (1973) nachgewiesen werden. Gemäß dieser Methode werden die genannten Verbindungen in ungefähr 1 mMol-Konzentrationen in Phosphatpuffer aufgelöst. Zu 100 Mikroliter von Lösungen der Testverbindung in Phosphatpuffer, welche man auf die gewünschte Konzentration verdünnt, gibt man zuerst 100 Mikroliter von 5 millimolarem Hippuryl-histidylleucin in Phosphatpuffer und dann 50 µl des Angiotensin-umwandelnden Enzyms. Dieses Enzym wird aus Lungen von erwachsenen männlichen Kaninchen in Tris-Puffer, der Kalium- und Magnesiumchlorid und auch Rohrzucker enthält, hergestellt. Die genannten Lösungen werden 30 Minuten bei 37 °C inkubiert, und die weitere Reaktion wird durch Hinzufügen von 0,75 ml einer 0,6-normalen wäßrigen Natriumhydroxidlösung gestoppt. Dann gibt man bei Zimmertemperatur 100 Mikroliter einer 0,2 %-igen Lösung von o-Phthalaldehyd in Methanol und nach 10 Minuten 100 Mikroliter 6n-Chlorwasserstoffsäure dazu. Diese Proben werden in einem Spektrophotometer bei 360 nm mit Wasser verglichen, und ihre optische Dichte wird bestimmt. Diese Werte werden durch einen Konversionsfaktor einer Standard-Kurve angepaßt, wobei man die während der genannten Inkubation von 30 Minuten gebildete Histidyl-leucin-Menge in Nanomolen erhält. Die Ergebnisse werden, um den IC50-Wert zu bestimmen, gegenüber den Wirkstoff-Konzentrationen graphisch als Kurve dargestellt. Der IC50-Wert bedeutet diejenige WirkstoffKonzentration, welche die Hälfte der Aktivität einer Kontrollprobe, die keinen Wirkstoff enthält, ergibt. Als Illustration der Erfindung sei auf das « höher schmelzende 1-Carboxymethyl-3-(1-carboxy-3-phenylpro- pylamino)-2,3,4,5-tetrahydro-1H-[1]-benzazepin-2-on des Beispiels 9 und auf das entsprechende S,S-Enantiomere des Beispiels 19 hingewiesen, welche einen lC50-Wert von 5,2 × 10^-9 M bzw. 1,7 × 10^-9 M aufweisen. Das entsprechende « niedriger schmelzende » 1-Carboxymethyl-3-(1-carboxy-3-phenylpropy- iamino)-2,3,4,5-tetrahydro-1H-[1] benzazepin-2-on des Beispiels 8 zeigt einen lC50-Wert von 5,8 ×10^-8 M.
Die Prüfung der Wirkung von Verbindungen ist gemäss den Methoden für die Auswertung der Hemmung des Enzyms, welches das Angiotensin umwandelt [angiotensin converting enzyme = ACE] durchgeführt worden. In der biochemischen Beurteilung der in vitro ACE-Hemmung [ACE inhibition = A-CEI] wird die Aktivität einer Verbindung im Kaninchen-Lungengewebe bestimmt.
Es wurde ein Kaninchen-Lungengewebe-Präparat [Das and Saffer, J. Biol. Chem. 250 : 6762 (1975) für die Bestimmung von ACE nach der Methode von Cheung und Cushman [Cheung and Cushman, Biochim. Biophys. Acta 293, 451 (1973)] verwendet. In dieser Methode wird die Menge des Histidyl-leucins. welche aus einem synthetischen Substrat innerhalb einer Inkubation von 30 Minuten bei 37° freigesetzt wird, spektrophotometrisch bestimmt. Die lC50-Werte der ACE-Hemmung werden dann graphisch berechnet. Der lC50-Wert ist die Konzentration (in Mol) der getesteten Verbindung, welche die in Abwesenheit der Testsubstanz entstehende Menge des Histidyl-leucins um 50 % herabsetzt.

[2] = test system: durch Angiotensin I (AI) hervorgerufene Blutdrucksteigerung; test: Inhibition of the angiotensin I (AI) induced blood pressure rise after intravenous administration of the test compound; format: in vivo, Ratten; details: for Hemmung der Blutdrucksteigerung nach Angiotensin I-Reizung: 1 mg/kg i.v., anaesthetised male normotensive rats, during 30 min after administration, 333 ng/kg angiotensin I; for % AI Hemmung: rat, mean inhibition within 30 min after administration
Description: Die Verbindungen der Erfindung zeigen nach intravenöser oder oraler Verabreichung eine hemmende Wirkung gegen die durch Angiotensin I hervorgerufene Blutdrucksteigerung auch an normotensiven Ratten. Das Angiotensin 1 wird durch das genannte Umwandlungsenzym zu der stark blutdrucksteigernden Substanz Angiotensin II hydrolysiert. Die Hemmung des genannten Enzyms blockiert die Bildung von Angiotensin II aus Angiotensin I. In dieser Weise wird die durch Angiotensin I provozierte Blutdrucksteigerung abgeschwächt.
Der entsprechende in-vivo-Test mit den intravenös verabreichten Verbindungen wird mit männlichen normotensiven Ratten, welche mit dem Natriumsalz der 5-Äthyl-5-(1-methylpropyl)-2-thiobarbitursäure narkotisiert sind, durchgeführt. Eine femorale Arterie und eine Wadenvene werden mit je einer Hohlnadel für die direkte Messung des Blutdrucks und für die intravenöse Verabreichung des Angiotensins I und einer erfindungsgemäßen Verbindung versehen. Nach der Stabilisierung des basalen Blutdrucks wird die Druckänderung nach drei, in 5-minütigen Intervallen, i. v. durchgeführten Reizungen mit 333 ng/kg Angiotensin I bestimmt. Solche Druckänderungen werden wieder nach 5,10,15, 30 und 60 Minuten nach intravenöser Verabreichung der zu prüfenden Verbindung bestimmt. Die letztgenannten Druckänderungen werden mit den Anfangswerten verglichen. Jede festgestellte Abnahme vom Ansprechen des Blutdrucks ist ein Hinweis auf die Hemmung des Enzyms, welches das Angiotensin I umwandelt. Als Illustration der Erfindung sei auf das « höher schmelzende » 1-Carboxymethyl-3-(1-äthoxycarbonyl-3-phenylpropylamino)-2,3,4,5-tetrahydro-1H-[1] benzazepin-2-on des Beispiels 1 und auf das entsprechende S,S-Enantiomere des Beispiels 12 hingewiesen. Diese hemmen vollständig die Blutdrucksteigerung nach Angiotensin I-Reizung während 30 Minuten nach intravenöser Verabreichung einer Dosis von 1 mg/kg pro Substanz.
In der in vivo Prüfungsmethode wird zuerst durch Verabreichung des Angiotensins I (AI) an das Versuchstier eine Blutdrucksteigerung hervorgerufen. Es wird dann die Hemmung der einzelnen Verbindungen auf diese Blutdrucksteigerung gemessen.
11. Methode der Hemmung der durch Angiotensin I (AI) hervorgerufenen Blutdrucksteigerung, durch intravenöse Verabreichung der Testverbindung (% AI-Hemmung)
In diesen Untersuchungen wird wie oben beschrieben, je ein Katheter in eine femurale Arterie und in eine Wadenvene der Ratte eingeführt.
Der arterielle Druck wurde von dem Arterienkatheter aus registriert, während man Angiotensin I (AI) und die einzelnen Testverbindungen durch den Venenkatheter injiziert hatte. Die Hemmung der durch Angiotensin I verursachten Blutdrucksteigerung ist als prozentuelle Abnahme des vor der Behandlung erhaltenen Kontrollwertes der Blutdrucksteigerung ausgedrückt und in der Tabelle als Durchschnittswert der Hemmung innerhalb 30 Minuten nach Verabreichung der Testsubstanz angegeben. (Siehe Tabelle Seite 41 f.)

[3] = test system: spontan hypertensiven Ratten; test: Antihypertensive effect in spontaneously hypertensive rats, indirect measurement of systolic blood pressure (tail cuff), oral dosing; format: in vivo
Description: Die in vivo blutdrucksenkende Wirkung wird entweder direkt mit einem Katheter, der in die femorale Arterie des Versuchstieres eingeführt ist, oder indirekt durch Sphygmomanometrie am Rattenschwanz, und einem Übertragungsinstrument registriert. Der Blutdruck wird vor und nach der Verabreichung des Wirkstoffes in mm Hg bestimmt.
So sind die antihypertensiven Wirkungen in spontan hypertensiven Ratten durch indirekte Messung des systolischen Blutdrucks nachweisbar. Nicht narkotisierte Ratten werden einzeln in Käfigen, welche ihre Bewegung einschränken, in eine leicht geheizte Kammer gebracht. Ein Puls-Sensor wird innerhalb einer aufblasbaren Manschette am Schwanz jeder Ratte angebracht. Die Manschette wird aufgeblasen, um die Schwanz-Arterie zu schließen. Der Druck in der Manschette wird kontinuierlich reduziert, und der systolische Druck entspricht demjenigen Druck in der Manschette, bei welchem die Pulswellen wieder auftreten. Nach der Registrierung von Kontrollwerten des Blutdrucks und der Herzfrequenz werden die Testverbindungen peroral einmal täglich an vier aufeinanderfolgenden Tagen verabreicht. Zusätzliche Blutdruckmessungen werden üblicherweise nach 2,0, 4,0 und 23,5 Stunden nach jeder täglichen Dosis vorgenommen. Die Werte werden mit denjenigen von Ratten, welche lediglich mit der Trägersubstanz behandelt worden sind, verglichen. […]

[4] = rabbit lung tissue preparation, 30 min incubation at 37°, read-out: In vitro ACEI IC50
[5] = ACE from rabbit lung, 30 min at 37 °C, read-out: IC50-Wert

IC50 [1, 4]	IC50 [1, 5]	SMILES	% AI Hemmung ([2]; i.v. Dosis 0.1 mg/kg)	% AI Hemmung ([2]; i.v. Dosis 0.03 mg/kg)	further results
600 nM		CCOC(=O)[C@H](CCc1ccccc1)N[C@H]1CCc2ccccc2N(CC(=O)O)C1=O (racemic) [Beispiel 1, 1-Carboxymethyl-3-(1-äthoxycarbonyl-3-phenylpropylamino)-2,3,4,5-tetrahydro-1H-[1] benzazepin-2-on]	50%		Hemmung der Blutdrucksteigerung nach Angiotensin I-Reizung [2]: vollständig; % AI Hemmung ([2]; i.v. Dosis 1.0 mg/kg): 100%; % AI Hemmung ([2]; i.v. Dosis 10 mg/kg): 100%; Blutdruck gesenkt (antihypertensiver Effekt) ([3]; 3 mg/kg p. o., once daily for four days, average, measured 2 and 4 h after dosing on the last two days): 40 mm Hg
400 nM		CCOC(=O)[C@H](CCc1ccccc1)N[C@H]1CCc2ccccc2N(CC(=O)O)C1=O [12 HCl Salz]	82%	29%	% AI Hemmung ([2]; i.v. Dosis 0.06 mg/kg): 74%; % AI Hemmung ([2]; i.v. Dosis 0.3 mg/kg): 95%; % AI Hemmung ([2]; i.v. Dosis 1.0 mg/kg): 100%
200 nM		CCOC(=O)[C@@H](CCc1ccccc1)N[C@H]1CCc2ccccc2N(CC(=O)O)C1=O [Beispiel 5, 1-Carboxymethyl-3-(1-äthoxycarbonyl-3-phenylpropylamino)-2,3,4,5,-tetrahydro-1H-[1] benzazepin-2-on]	37%		
2 nM	1.7 nM	O=C(O)CN1C(=O)[C@@H](N[C@@H](CCc2ccccc2)C(=O)O)CCc2ccccc21 [Beispiel 19, 1-Carboxymethyl-3S-(1S-carboxy-3-phenylpropylamino)-2,3,4,5-tetrahydro-1H-[1] benzazepin-2-on]	93%	70%	% AI Hemmung ([2]; i.v. Dosis 0.007 mg/kg): 14%; % AI Hemmung ([2]; i.v. Dosis 0.01 mg/kg): 28%; % AI Hemmung ([2]; i.v. Dosis 0.02 mg/kg): 69%; % AI Hemmung ([2]; i.v. Dosis 0.06 mg/kg): 84%

Continued, molecule first:

SMILES	IC50 [1, 4]	IC50 [1, 5]	% AI Hemmung ([2]; i.v. Dosis 0.1 mg/kg)	% AI Hemmung ([2]; i.v. Dosis 0.03 mg/kg)	further results
O=C(O)CN1C(=O)C(NC(CCc2ccccc2)C(=O)O)CCc2ccccc21 (single isomer, unassigned) [Beispiel 8, 1-Carboxymethyl-3-(1-carboxy-3-phenylpropylamino)-2,3,4,5-tetrahydro-1H-[1] benzazepin-2-on]		58 nM			
O=C(O)CN1C(=O)C(NC(CCc2ccccc2)C(=O)O)CCc2ccccc21 (single isomer, unassigned) [Beispiel 9, 1-Carboxymethyl-3-(1-carboxy-3-phenylpropylamino)-2,3,4,5-tetrahydro-1H-[1]-benzazepin-2-on]	5 nM	5.2 nM	80%	40%	% AI Hemmung ([2]; i.v. Dosis 0.3 mg/kg): 93%
CCOC(=O)[C@H](CCc1ccccc1)N[C@H]1CCc2ccccc2N(CC(=O)O)C1=O [Beispiel 12, 1-Carboxymethyl-3S-(1S-äthoxycarbonyl-3-phenylpropylamino)-2,3,4,5-tetrahydro-1H-[1] benzazepin-2-on]					Hemmung der Blutdrucksteigerung nach Angiotensin I-Reizung [2]: vollständig; Blutdruck gesenkt (antihypertensiver Effekt) ([3]; peroral dose of 1 mg/kg): 30 mm Hg
